Reference: patent US20180312493A1, “Antibiotic Compounds, Pharmaceutical Formulations Thereof And Methods And Uses Therefor” (Simon Fraser University, priority 2015, published 2018)
pIC50: −log10 of the molar value. ≈ marks a conversion by molar mass, not a printed value.

What was measured:
MRSA Pyk = target: T1, MRSA Pyk (Staphylococcus aureus, UniProt Q6GG09); test: MRSA pyruvate kinase (PK) activity, continuous LDH-coupled assay; format: biochemical, methicillin resistant S. aureus (MRSA252)
T1 construct: made in house; host or cells: E. coli BL-21 (DE3)
T1 sequence (Q6GG09 whole entry): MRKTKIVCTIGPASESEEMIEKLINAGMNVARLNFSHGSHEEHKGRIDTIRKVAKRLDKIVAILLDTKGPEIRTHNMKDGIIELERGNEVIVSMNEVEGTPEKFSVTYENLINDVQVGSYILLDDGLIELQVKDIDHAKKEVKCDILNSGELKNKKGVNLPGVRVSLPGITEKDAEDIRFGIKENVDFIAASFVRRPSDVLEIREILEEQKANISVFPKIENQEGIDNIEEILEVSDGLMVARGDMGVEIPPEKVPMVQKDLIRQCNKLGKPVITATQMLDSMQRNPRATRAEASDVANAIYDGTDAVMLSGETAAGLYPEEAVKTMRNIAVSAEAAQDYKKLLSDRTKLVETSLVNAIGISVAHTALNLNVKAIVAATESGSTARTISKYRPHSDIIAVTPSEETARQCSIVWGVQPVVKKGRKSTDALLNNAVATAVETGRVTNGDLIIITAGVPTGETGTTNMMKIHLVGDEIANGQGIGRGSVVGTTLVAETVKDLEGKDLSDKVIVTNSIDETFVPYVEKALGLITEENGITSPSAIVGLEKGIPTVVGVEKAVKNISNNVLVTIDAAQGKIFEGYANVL
Summary of the method: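 Activity monitored continuously as absorbance change at 340 nm from NADH oxidation via coupled lactate dehydrogenase, reactions started with 15 nM recombinant His-tagged PK (MRSA or human isoform) and run at 30° C for up to 5 min. Ki derived by varying inhibitor (0-400 nM) and PEP (2-20 mM) at 2 mM ADP; IC50 by four-parameter fitting.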

MRSA (ATCC BAA-1762) = test: In vitro susceptibility, broth microdilution (MIC); format: cell-based, methicillin resistant S. aureus; conditions: Staphylococcus aureus; MRSA ATCC BAA-1762; read-out: Antimicrobial activity (MIC) MRSA ATCC BAA1762
Summary of the method: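 MIC determined by CLSI 2-fold broth microdilution in cation-adjusted Mueller–Hinton broth at ~2.5×10^5 CFU/ml, final compound 0.031–64 μg/ml, 18–24 h at 37 °C. MIC is the lowest concentration giving complete growth inhibition by background-corrected OD600 versus compound-free wells; duplicate or triplicate wells, replicated at least twice.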

Row | SMILES | pIC50 (MRSA Pyk) | MIC (MRSA (ATCC BAA-1762))
1 | C[N+](C)(C)CCON=C(c1c(-c2cc3cc(Cl)ccc3[nH]2)[nH]c2cc(Br)ccc12)C(F)(F)F (racemic) [Compound 221, 2-(((1-(6-Bromo-5′-chloro-1H,1′H-[2,2′-biindol]-3-yl)-2,2,2-trifluoroethylidene)amino)oxy)-N,N,N-trimethylethan-1-aminium Iodide] | > 7.00 | 2 µg/mL
2 | NCCNC(=O)c1c(-c2cc3cc(Cl)ccc3[nH]2)[nH]c2cc(Br)ccc12 [Compound 206, N-(2-Aminoethyl)-6-bromo-5′-chloro-1H,1′H-[2,2′-biindole]-3-carboxamide] | > 7.00 | 8 µg/mL (≈ 18.5 µM)
3 | CN(C)CCOC(=O)c1c(/C=C/c2ccc(Cl)cc2)[nH]c2cc(Br)ccc12 [Compound 60, (E)-2-(Dimethylamino)ethyl 6-bromo-2-(4-chlorostyryl)-1H-indole-3-carboxylate] | > 7.00 | 
4 | NCCOc1cc2[nH]c(-c3cc4ccc(Br)cc4[nH]3)cc2cc1Cl [Compound 201, 2-((6′-Bromo-5-chloro-1H,1′H-[2,2′-biindol]-6-yl)oxy)ethan-1-amine] | > 7.00 | 4 µg/mL (≈ 9.88 µM)
